Test results as given in patent publication US20120142667A1, “PYRIMIDINE DERIVATIVES AS ZAP-70 INHIBITORS” (priority 2009, published 2012).

Experiments:
[1] = test system: Calcium Ion Release in Cells; experiment: calcium release assay (measurement of calcium ion release in cells); format: cell-based; settings: calcium release assay as described in WO-A 2009/080638
ZAP-70 = target: T1, ZAP-70 (Homo sapiens, UniProt P43403); experiment: ZAP-70 kinobeads assay; format: binding; settings: cell lysate
T1 construct: endogenous in cells; host or cells: cell lysate
T1 sequence (P43403 1-619): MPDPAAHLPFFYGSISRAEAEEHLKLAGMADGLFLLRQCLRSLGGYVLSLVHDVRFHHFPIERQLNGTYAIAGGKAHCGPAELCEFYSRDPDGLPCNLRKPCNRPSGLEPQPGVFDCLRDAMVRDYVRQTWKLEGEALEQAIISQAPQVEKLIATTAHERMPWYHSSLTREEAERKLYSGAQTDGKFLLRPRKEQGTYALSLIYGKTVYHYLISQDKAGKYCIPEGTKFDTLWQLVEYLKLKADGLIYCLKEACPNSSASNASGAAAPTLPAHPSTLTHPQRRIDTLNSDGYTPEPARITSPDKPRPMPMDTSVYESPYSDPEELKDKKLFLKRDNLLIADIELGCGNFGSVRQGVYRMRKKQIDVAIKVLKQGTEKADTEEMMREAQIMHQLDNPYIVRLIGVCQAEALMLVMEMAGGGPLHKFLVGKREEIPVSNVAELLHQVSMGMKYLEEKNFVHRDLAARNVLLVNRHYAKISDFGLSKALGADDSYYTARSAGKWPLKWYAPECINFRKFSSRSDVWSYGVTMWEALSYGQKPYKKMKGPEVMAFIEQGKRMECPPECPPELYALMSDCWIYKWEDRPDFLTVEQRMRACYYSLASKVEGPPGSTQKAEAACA
Method in brief: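 Competition binding: compounds at various concentrations incubated with cell lysate plus affinity matrix bearing immobilized aminopyrido-pyrimidine ligand 24. ZAP-70 retained on beads eluted and quantified by specific-antibody dot blot with infrared detection.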

Row | IC50 [1] | IC50 (ZAP-70) | Compound
1 | ≤ 1000 nM | 100 to 1000 nM | COc1ccc(Nc2nc(Nc3cc(OCCO)ccc3Cl)ncc2Cl)c(NS(C)(=O)=O)c1 [Example 111, N-(2-((5-chloro-2-((2-chloro-5-(2-hydroxyethoxy)phenyl)amino)pyrimidin-4-yl)amino)-5-methoxyphenyl)methanesulfonamide]
2 | ≤ 1000 nM | 100 to 1000 nM | COc1ccc(Nc2nc(Nc3cccc(OCC(C)O)c3C)ncc2Cl)c(NS(C)(=O)=O)c1 (stereo not drawn) [Example 93, N-(2-((5-chloro-2-((3-(2-hydroxypropoxy)-2-methylphenyl)amino)pyrimidin-4-yl)amino)-5-methoxyphenyl)methanesulfonamide]
3 | ≤ 1000 nM | ≤ 100 nM | COc1ccc(Nc2nc(Nc3cc(OCC(N)=O)ccc3OC)ncc2Cl)c(NS(C)(=O)=O)c1 [Example 108, 2-(3-((5-chloro-4-((4-methoxy-2-(methylsulfonamido)phenyl)amino)pyrimidin-2-yl)amino)-4-methoxyphenoxy)acetamide]
4 | ≤ 1000 nM | 100 to 1000 nM | COc1ccc(Nc2nc(Nc3cc(OC)c(CCO)cc3OC)ncc2Cl)c(NS(C)(=O)=O)c1 [Example 105, N-(2-((5-chloro-2-((4-(2-hydroxyethyl)-2,5-dimethoxyphenyl)amino)pyrimidin-4-yl)amino)-5-methoxyphenyl)methanesulfonamide]

The next lines start with the molecule.

Row | Compound | IC50 [1] | IC50 (ZAP-70)
5 | COc1ccc(Nc2nc(Nc3ccc(OCCO)cc3F)ncc2Cl)c(NS(C)(=O)=O)c1 [Example 55, N-(2-(5-chloro-2-(2-fluoro-4-(2-hydroxyethoxy)phenylamino)pyrimidin-4-ylamino)-5-methoxyphenyl)methanesulfonamide] | ≤ 1000 nM | 100 to 1000 nM
6 | COc1ccc(Nc2nc(Nc3ccc(OCCN)cc3OC)ncc2Cl)c(NS(C)(=O)=O)c1 [Example 63, N-(2-(2-(4-(2-aminoethoxy)-2-methoxyphenylamino)-5-chloropyrimidin-4-ylamino)-5-methoxyphenyl)methanesulfonamide] | ≤ 1000 nM | 100 to 1000 nM
7 | COc1ccc(Nc2nc(Nc3cccc(OCCO)c3C)ncc2Cl)c(NS(C)(=O)=O)c1 [Example 65, N-(2-(5-chloro-2-(3-(2-hydroxyethoxy)-2-methylphenylamino)pyrimidin-4-ylamino)-5-methoxyphenyl)methanesulfonamide] | ≤ 1000 nM | ≤ 100 nM
8 | COc1ccc(Nc2nc(Nc3cccc(OCCF)c3C)ncc2Cl)c(NS(C)(=O)=O)c1 [Example 92, N-(2-(5-chloro-2-(3-(2-fluoroethoxy)-2-methylphenylamino)pyrimidin-4-ylamino)-5-methoxyphenyl)methanesulfonamide] | ≤ 1000 nM | 100 to 1000 nM
9 | COc1ccc(Nc2nc(Nc3cnc(OCCO)cc3OC)ncc2Cl)c(NS(C)(=O)=O)c1 [Example 83, N-(2-(5-chloro-2-(6-(2-hydroxyethoxy)-4-methoxypyridin-3-ylamino)pyrimidin-4-ylamino)-5-methoxyphenyl)methanesulfonamide] | ≤ 1000 nM | ≤ 100 nM
10 | COc1ccc(Nc2nc(Nc3cc(OC)c(OC)cc3OC)ncc2Cl)c(NS(C)(=O)=O)c1 [Example 29, N-(2-(5-chloro-2-(2,4,5-trimethoxyphenylamino)pyrimidin-4-ylamino)-5-methoxyphenyl)methanesulfonamide] | ≤ 1000 nM | 100 to 1000 nM
11 | COc1ccc(Nc2nc(Nc3cc(OCCO)ccc3OC)ncc2Cl)c(NS(C)(=O)=O)c1 [Example 68, N-(2-(5-chloro-2-(5-(2-hydroxyethoxy)-2-methoxyphenylamino)pyrimidin-4-ylamino)-5-methoxyphenyl)methanesulfonamide] | ≤ 1000 nM | ≤ 100 nM
12 | COc1ccc(Nc2nc(Nc3cccnc3C)ncc2Cl)c(NS(C)(=O)=O)c1 [Example 77, N-(2-(5-chloro-2-(2-methylpyridin-3-ylamino)pyrimidin-4-ylamino)-5-methoxyphenyl)methanesulfonamide] | ≤ 1000 nM | 100 to 1000 nM
